Parameters in all cases: species or system Hepacivirus hominis
Assay [1] addresses T1, NS3 (Hepatitis C virus, UniProt A3EZJ3). The experiment in a line: Binding affinity against Hepatitis C virus NS3 protease.
Assay [2] addresses T1, NS3. The experiment in a line: Compound was evaluated for its binding affinity against NS3 protease.
For assay [3], the target named is T1, NS3. The experiment in a line: Binding affinity against Hepatitis C virus NS3 protease was calculated as Kcat.

The source of these data is ChEMBL document CHEMBL1135259, “Azapeptides as inhibitors of the hepatitis C virus NS3 serine protease” (Bioorg Med Chem Lett, 2002).

Structures are written as SMILES.

T1 sequence (A3EZJ3 whole entry): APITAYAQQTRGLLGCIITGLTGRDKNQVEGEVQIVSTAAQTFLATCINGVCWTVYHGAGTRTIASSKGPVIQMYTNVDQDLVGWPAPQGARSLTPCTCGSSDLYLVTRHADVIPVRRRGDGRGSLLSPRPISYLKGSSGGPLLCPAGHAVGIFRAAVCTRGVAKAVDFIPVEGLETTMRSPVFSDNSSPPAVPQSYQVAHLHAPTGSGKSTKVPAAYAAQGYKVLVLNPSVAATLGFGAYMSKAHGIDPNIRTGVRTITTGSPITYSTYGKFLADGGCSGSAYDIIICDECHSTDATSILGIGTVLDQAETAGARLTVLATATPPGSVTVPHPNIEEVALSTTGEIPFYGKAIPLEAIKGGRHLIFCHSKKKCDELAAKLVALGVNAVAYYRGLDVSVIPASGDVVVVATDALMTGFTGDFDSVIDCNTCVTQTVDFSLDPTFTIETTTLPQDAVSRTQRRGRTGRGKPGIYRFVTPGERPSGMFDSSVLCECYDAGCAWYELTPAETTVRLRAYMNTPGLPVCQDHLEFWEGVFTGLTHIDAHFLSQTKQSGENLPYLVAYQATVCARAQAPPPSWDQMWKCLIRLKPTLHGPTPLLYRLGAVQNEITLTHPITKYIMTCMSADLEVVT

Regarding `CCCN(NC(=O)[C@H]1CCCN1C(=O)[C@@H](NC(=O)[C@@H](NC(=O)[C@H](CC(=O)O)NC(=O)[C@H](CCC(=O)O)NC(=O)[C@@H](NC(=O)[C@H](CC(=O)O)NC(C)=O)[C@@H](C)O)C(C)C)C(C)C)C(=O)Oc1ccc([N+](=O)[O-])cc1`, the Ki is 2 µM on NS3 [1], 3 µM at NS3 [2] and 0.5 min⁻¹ on NS3 [3].

Compound `CSCC[C@H](NC(=O)[C@H](CO)NC(=O)NNC(=O)[C@H]1CCCN1C(=O)[C@@H](NC(=O)[C@@H](NC(=O)[C@H](CC(=O)O)NC(=O)[C@H](CCC(=O)O)NC(=O)[C@@H](NC(=O)[C@H](CC(=O)O)NC(C)=O)[C@@H](C)O)C(C)C)C(C)C)C(=O)N[C@@H](CO)C(=O)N[C@@H](Cc1ccc(O)cc1)C(=O)N[C@H](C(=O)N[C@@H](Cc1c[nH]c2ccccc12)C(=O)N[C@H](C(=O)NCC(=O)N[C@@H](CCCCN)C(=O)O)[C@@H](C)O)[C@@H](C)O` displayed a Ki at NS3 [1] greater than 200 µM.

On NS3 [1], `CCCN(NC(=O)[C@H]1CCCN1C(=O)[C@@H](NC(=O)[C@@H](NC(=O)[C@H](CC(=O)O)NC(C)=O)C(C)C)C(C)C)C(=O)Oc1ccc([N+](=O)[O-])cc1` had a Ki of 7 µM.

In the case of `CCCN(NC(=O)[C@H]1CCCN1C(=O)[C@@H](NC(=O)[C@@H](NC(=O)[C@H](CC(=O)O)NC(=O)[C@H](CCC(=O)O)NC(=O)[C@@H](NC(=O)[C@H](CC(=O)O)NC(C)=O)[C@@H](C)O)C(C)C)C(C)C)C(=O)OC(C)(C)C(Cl)(Cl)Cl`, the Ki on NS3 [1] was greater than 100 µM.

For `CCCN(NC(=O)[C@H]1CCCN1C(=O)[C@@H](NC(=O)[C@@H](NC(=O)[C@H](CC(=O)O)NC(=O)[C@H](CCC(=O)O)NC(=O)[C@@H](NC(=O)[C@H](CC(=O)O)NC(C)=O)[C@@H](C)O)C(C)C)C(C)C)C(=O)c1ccc(C(F)(F)F)cc1`, the Ki at NS3 [1] is greater than 100 µM.

As for `CCCN(NC(=O)[C@H]1CCCN1C(=O)[C@@H](NC(=O)[C@@H](NC(=O)[C@H](CC(=O)O)NC(=O)[C@H](CCC(=O)O)NC(=O)[C@@H](NC(=O)[C@H](CC(=O)O)NC(C)=O)[C@@H](C)O)C(C)C)C(C)C)S(=O)(=O)CCl`, the Ki at NS3 [1] is greater than 100 µM.

`CCCN(NC(=O)[C@H]1CCCN1C(=O)[C@@H](NC(=O)[C@@H](NC(=O)[C@H](CC(=O)O)NC(=O)[C@H](CCC(=O)O)NC(=O)[C@@H](NC(=O)[C@H](CC(=O)O)NC(C)=O)[C@@H](C)O)C(C)C)C(C)C)C(=O)C(F)(F)F` showed a Ki on NS3 [1] greater than 100 µM.
